{"source": "patent US12171821B2", "about": "“Toxoplasma gondii vaccine” (priority 2018, dated 2024)", "key": {"[1]": {"tested_on": "T. gondii ME49 bradyzoites", "assay": "Merozoite markers GRA11B/BRP1, immunofluorescence, infected cat intestinal monolayers", "format": "cell-based, Toxoplasma gondii", "details": "200 μM fatty acid, 5 days of infection", "description": "FIGS. 6A-B. Quantification of merozoites in cat tissue culture. A) Cat intestinal organoids were disassociated by trypsin then grown as monolayers on glass slides. Slides were divided into three different groups: not supplemented with fatty acid, supplemented with 200 μM oleic acid or supplemented 200 μM linoleic acid. Monolayers were infected with T. gondii MEM bradyzoites purified from brains of chronic infected mice at a 1:10 MOI. Five days after infection, staining for GRA11B and BRP1 along with DAPI, allowed the percentage of vacuoles positive for GRA11B and BRP1out of the total vacuoles was determined. Total number of parasitophorous vacuoles were counted by positive DAPI staining and confirmed by morphology with DIC. At least 50 parasitophorous vacuoles were counted per replicate. Three biological replicates were counted and on average 35% of the total vacuoles were positive far both GRA11B and BRP1 in the linoleic acid supplemented monolayers. *p-value=0.0126 with N=3 by two-tailed unpaired t test. Straining for both BRP1 and GRA11B was used to ensure that merozoite stages were counted. […] BRP1 is a rhoptry protein that was initially found in bradyzoites; however, it is also expressed in merozoite. […]"}, "[2]": {"tested_on": "T. gondii ME49 bradyzoites", "assay": "qPCR of SAG1, GRA11B, TUB1A on cDNA of infected cat intestinal monolayers", "format": "cell-based, Toxoplasma gondii", "description": "FIGS. 6A-B. Quantification of merozoites in cat tissue culture. A) Cat intestinal organoids were disassociated by trypsin then grown as monolayers on glass slides. Slides were divided into three different groups: not supplemented with fatty acid, supplemented with 200 μM oleic acid or supplemented 200 μM linoleic acid. Monolayers were infected with T. gondii MEM bradyzoites purified from brains of chronic infected mice at a 1:10 MOI. Five days after infection, staining for GRA11B and BRP1 along with DAPI, allowed the percentage of vacuoles positive for GRA11B and BRP1out of the total vacuoles was determined. Total number of parasitophorous vacuoles were counted by positive DAPI staining and confirmed by morphology with DIC. At least 50 parasitophorous vacuoles were counted per replicate. Three biological replicates were counted and on average 35% of the total vacuoles were positive far both GRA11B and BRP1 in the linoleic acid supplemented monolayers. *p-value=0.0126 with N=3 by two-tailed unpaired t test. Straining for both BRP1 and GRA11B was used to ensure that merozoite stages were counted. […] BRP1 is a rhoptry protein that was initially found in bradyzoites; however, it is also expressed in merozoite. B) Cat intestinal monolayers were grown as described in panel A, except monolayers were quenched by TRIzol 5 days post-infection, RNA was extracted, and cDNA was synthesized using an oligo (dT) primer to amplify mRNA, Expression of SAG1 and GRA11B were quantified by qPCR and the fold change calculated in comparison with uninfected cells. TUB1A was used to normalize gene expression across samples.\nReal-time PCR on ileum cDNA. Z-DNA binding protein deletion mice ice with and without delta-6-desaturase inhibitor treatment were euthanized 7 days post infection. The ileum of each mouse was removed and homogenized in 1 mL of TRIzol. Total RNA was isolated according to manufacturer's protocol (Invitrogen) and treated with amplification grade Dnase I. cDNA was generated using the Invitrogen SuperScript III First-Strand Synthesis kit with random hexamer primers. GRA11B and SAG1 were used as markers of sexual and asexual stages, respectively. The T. gondii housekeeping gene TUB1A was used to normalize target gene expression. Real-time quantitative PCR was performed using Bio-Rad iTaq Universal SYBR Green Supermix on 311 an Applied Biosystems StepOnePlus Real-Time PCR system. The efficiency of each primer set was calculated from the slope of a 1:10 dilution standard curve of tachyzoite gDNA, where E=10^(−1/slope). The Pfaffl method (Pfaffl, 2001), which accounts for differences in efficiencies, was then used to calculate the relative gene expression of GRA11B and SAG1 per sample, in triplicate. Only wells with one melt curve temperature were used, indicating a single product. Primer sequences were as follows: […]"}, "[3]": {"details": "cat intestinal monolayers cDNA, biological replicates 1 and 2"}, "[4]": {"details": "cat intestinal monolayers cDNA, biological replicates 1 and 2, wells 1-3"}}, "note": "“And” between values parts separate entries of the source, which are not always exact repeats. Identical values can stand only once."}
{"molecule": "CCCCC/C=C\\C/C=C\\CCCCCCCC(=O)O", "note": "[linoleic acid]", "values": [{"measurement": "parasites undergoing sexual development / merozoite stage markers GRA11B and BRP1 (staining)", "setting": "[1]", "result": "commonly seen only with linoleic acid supplementation"}, {"measurement": "GRA11B Ct mean", "setting": "[2]; [3]", "result": "26.44 and 27.75"}, {"measurement": "SAG1 Ct mean", "setting": "[2]; [3]", "result": "19.15 and 19.99"}, {"measurement": "GRA11B raw Ct values", "setting": "[2]; [4]", "result": "26.53 and 27.67 and 26.34 and 27.82 and 26.44 and 27.77"}, {"measurement": "SAG1 raw Ct values", "setting": "[2]; [4]", "result": "19.09 and 20.09 and 19.19 and 19.93 and 19.16 and 19.95"}, {"measurement": "GRA11B expression by qPCR (fold change versus uninfected cells, normalized to TUB1A)", "setting": "[2]; cat intestinal monolayers, 200 μM, 5 days post-infection", "result": "significantly more abundant"}]}
